Test results taken from ChEMBL document CHEMBL6087394, “Immune Checkpoint-Modulating Photosensitizer That Targets BRD4 for Cancer Photoimmunotherapy” (J Med Chem, 2024).
Active and inactive are the calls of the source. The calls are words filed in the database; no cut-off is given here.

Key:
[1] = Photophysical property of the compound assessed as maximum fluorescent emission peak at by fluorescence at 10 uM spectrophotometric analysis; type: physicochemical
[2] = Induction of ROS generation in PBS buffer assessed as increase in superoxide anion radical level by measuring increase in DHR123 fluorescence intensity at 5 uM irradiated with 660 nm 20 mW/cm2 light for upto 7 mins by DHR123 probe based fluorescence spectra analysis; type: functional
[3] = Induction of singlet oxygen production in PBS buffer assessed as decrease in absorption signal at 410 nm under light irradiation with 660 nm 20 mW/cm2 by ABDA based microplate reader analysis relative to control; type: functional
[4] = Drug uptake in human MDA-MB-231 cells assessed as increase in fluorescence intensity at 2.5 uM measured after 2 hrs by flow cytometry analysis; type: ADME, cell-based; details: mda-mb-231, 2 h
MDA-MB-231 [5] = test: Induction of ROS production in human MDA-MB-231 cells assessed as increase in green fluorescent intensity at 0.1 uM preincubated with compound for 2 hrs followed by light irradiation for 10 mins by DCFH-DA probe based flow cytometry; type: functional, cell-based; details: time 130.0 min
MDA-MB-231 [6] = test: Induction of ROS production in human MDA-MB-231 cells assessed as increase in green fluorescent intensity at 0.1 uM preincubated with compound for 2 hrs followed by light irradiation for 10 mins in presence of NaN3 by DCFH-DA probe based flow cytometry; type: functional, cell-based; details: time 130.0 min
MDA-MB-231 [7] = test: Induction of ROS production in human MDA-MB-231 cells assessed as increase in green fluorescent intensity at 0.1 uM preincubated with compound for 2 hrs followed by light irradiation for 10 mins in presence of tiron by DCFH-DA probe based flow cytometry; type: functional, cell-based; details: time 130.0 min
MDA-MB-231 [8] = test: Cytotoxicity against human MDA-MB-231 cells assessed as reduction in cell viability upto 10 uM incubated for 24 hrs by CCK-8 assay; type: functional, cell-based
[9] = Phototoxicity against human MDA-MB-231 cells assessed as reduction in cell viability preincubated with compound for 2 hrs followed by light irradiation with 660 nm 20 mW/cm2 for 10 mins and measured after 24 hrs by CCK-8 assay; type: functional, cell-based; details: MDA-MB-231, light or radiation study
MDA-MB-231 [10] = test: Induction of cell death in human MDA-MB-231 cells assessed as increase in bright red signal at 0.5 uM preincubated with compound for 2 hrs followed by light irradiation with 660 nm 20 mW/cm2 for 10 mins and measured after 12 hrs by Calcein-AM staining based inverted fluorescence microscopic analysis; type: functional; details: time 850.0 min
[11] = molecular target: T1, Bromodomain-containing protein 4 (Homo sapiens, UniProt O60885); test: Inhibition of BRD4 (unknown origin) incubated for 120 mins by TR-FRET assay
MDA-MB-231 [12] = test: Induction of pyroptosis in human MDA-MB-231 cells assessed as cell swelling at 0.25 uM preincubated with compound for 2 hrs followed by light irradiation with 660 nm 20 mW/cm2 for 10 mins and measured after 24 hrs by CLSM imaging analysis; type: functional, cell-based; details: time 1570.0 min
MDA-MB-231 [13] = test: Induction of pyroptosis in human MDA-MB-231 cells assessed as formation of large bubbles on plasma membrane at 0.25 uM preincubated with compound for 2 hrs followed by light irradiation with 660 nm 20 mW/cm2 for 10 mins and measured after 24 hrs by CLSM imaging analysis; type: functional, cell-based; details: time 1570.0 min
MDA-MB-231 [14] = test: Induction of pyroptosis in human MDA-MB-231 cells assessed as increase in GSDME-N expression at 0.25 uM preincubated with compound for 2 hrs followed by light irradiation with 660 nm 20 mW/cm2 for 10 mins and measured after 24 hrs by Western blot analysis; type: functional, cell-based; details: time 1570.0 min
MDA-MB-231 [15] = test: Induction of pyroptosis in human MDA-MB-231 cells assessed as increase in cleaved caspase -3 expression at 0.1 uM preincubated with compound for 2 hrs followed by light irradiation with 660 nm 20 mW/cm2 for 10 mins and measured after 24 hrs by Western blot analysis; type: functional, cell-based; details: time 1570.0 min
MDA-MB-231 [16] = test: Induction of pyroptosis in human MDA-MB-231 cells assessed as effect on cleaved GSDMD expression at 0.1 uM preincubated with compound for 2 hrs followed by light irradiation with 660 nm 20 mW/cm2 for 10 mins and measured after 24 hrs by Western blot analysis; type: functional, cell-based; details: time 1570.0 min
MDA-MB-231 [17] = test: Induction of pyroptosis in human MDA-MB-231 cells assessed as effect on caspase-1 expression at 0.1 uM preincubated with compound for 2 hrs followed by light irradiation with 660 nm 20 mW/cm2 for 10 mins and measured after 24 hrs by Western blot analysis; type: functional, cell-based; details: time 1570.0 min
MDA-MB-231 [18] = test: Effect on LDH level in human MDA-MB-231 cells preincubated with compound for 2 hrs followed by light irradiation with 660 nm 20 mW/cm2 for 10 mins and measured after 24 hrs; type: functional, cell-based; details: time 1570.0 min
MDA-MB-231 [19] = test: Effect on IL-1beta level in human MDA-MB-231 cells preincubated with compound for 2 hrs followed by light irradiation with 660 nm 20 mW/cm2 for 10 mins and measured after 24 hrs by ELISA analysis; type: functional, cell-based; details: time 1570.0 min
MDA-MB-231 [20] = test: Induction of cell death in human MDA-MB-231 cells assessed as increase in HMGB1 release in nucleus by immunofluorescence staining based analysis; type: functional
MDA-MB-231 [21] = test: Induction of ferroptosis in human MDA-MB-231 cells assessed as decrease in GSH level at 0.1 uM preincubated with compound for 2 hrs followed by light irradiation with 660 nm 20 mW/cm2 for 10 mins and measured after 12 hrs; type: functional, cell-based; details: time 850.0 min
MDA-MB-231 [22] = test: Induction of ferroptosis in human MDA-MB-231 cells assessed as increase in intracellular LPO accumulation by measuring green fluorescence intensity at 0.1 uM preincubated with compound for 2 hrs followed by light irradiation with 660 nm 20 mW/cm2 for 10 mins and measured after 12 hrs; type: functional, cell-based; details: time 850.0 min
MDA-MB-231 [23] = test: Induction of ferroptosis in human MDA-MB-231 cells assessed as reduction in GPX4 expression at 0.1 uM preincubated with compound for 2 hrs followed by light irradiation with 660 nm 20 mW/cm2 for 10 mins and measured after 12 hrs by Western blot analysis; type: functional, cell-based; details: time 850.0 min
MDA-MB-231 [24] = test: Induction of autophagy in human MDA-MB-231 cells assessed as increase in ratio of LC3-II to LC3-I preincubated with compound for 2 hrs followed by light irradiation with 660 nm 20 mW/cm2 for 10 mins and measured after 12 hrs by Western blot analysis; type: functional, cell-based; details: time 850.0 min
MDA-MB-231 [25] = test: Induction of autophagy in human MDA-MB-231 cells assessed as downregulation p62 expression preincubated with compound for 2 hrs followed by light irradiation with 660 nm 20 mW/cm2 for 10 mins and measured after 24 hrs by Western blot analysis; type: functional, cell-based; details: time 1570.0 min
MDA-MB-231 [26] = test: Induction of DNA damage in human MDA-MB-231 cells assessed as upregulation of gamma-H2AX expression preincubated with compound for 2 hrs followed by light irradiation with 660 nm 20 mW/cm2 for 10 mins and measured after 24 hrs by Western blot analysis; type: functional, cell-based; details: time 1570.0 min
MDA-MB-231 [27] = test: […] in human MDA-MB-231 cells assessed as decrease in RAD51 expression preincubated with compound for 2 hrs followed by light irradiation with 660 nm 20 mW/cm2 for 10 mins and measured after 24 hrs by Western blot analysis; type: functional, cell-based; details: time 1570.0 min
MDA-MB-231 [28] = test: Down regulation of PD-L1 expression in human MDA-MB-231 cells incubated for 24 hrs by Western blot analysis; type: functional, cell-based; details: dose 0.5-2.5 µM
MDA-MB-231 [29] = test: Down regulation of PD-L1 expression in human MDA-MB-231 cells at 0.1 uM preincubated with compound for 2 hrs followed by light irradiation with 660 nm 20 mW/cm2 for 10 mins and measured after 24 hrs by Western blot analysis; type: functional, cell-based; details: time 1570.0 min
[30] = molecular target: T1, Bromodomain-containing protein 4; test: Inhibition of BRD4 in human MDA-MB-231 cells assessed as downregulation of c-Myc expression at 0.5 to 2.5 uM incubated for 24 hrs by Western blot analysis; type: cell-based; details: dose 0.5-2.5 µM
[31] = Biodistribution in female BALB/c mouse tumor at 2.5 mg/kg, iv measured at 1 hr; type: ADME, organism-based, Neoplasm; details: in vivo
[32] = Biodistribution in female BALB/c mouse tumor at 2.5 mg/kg, iv measured at 3 hrs; type: ADME, organism-based, Neoplasm; details: in vivo
4T1 [33] = test: Antitumor activity against mouse 4T1 cells implanted in female BALB/c mouse assessed as inhibition of tumor growth at 2.5 mg/kg, iv preincubated with compound for 3 hrs followed by light irradiation with 660 nm 300 mW/cm2 for 3 min and measured after 14 days; type: functional, organism-based; details: time 20343.0 min
4T1 [34] = test: Antitumor activity against mouse 4T1 cells implanted in female BALB/c mouse assessed as inhibition of tumor growth at 2.5 mg/kg, iv; type: functional, organism-based
[35] = Toxicity in BALB/c mouse implanted with mouse 4T1 cells at 2.5 mg/kg, iv; type: organism-based; details: in vivo
[36] = Toxicity in BALB/c mouse implanted with mouse 4T1 cells assessed as heart damage at 2.5 mg/kg, iv measured after 14 days by H and E staining based analysis; type: organism-based; details: in vivo, 336 h, time 14 day
[37] = Toxicity in BALB/c mouse implanted with mouse 4T1 cells assessed as liver damage at 2.5 mg/kg, iv measured after 14 days by H and E staining based analysis; type: organism-based; details: in vivo, 336 h, time 14 day
[38] = Toxicity in BALB/c mouse implanted with mouse 4T1 cells assessed as spleen damage at 2.5 mg/kg, iv measured after 14 days by H and E staining based analysis; type: organism-based; details: in vivo, 336 h, time 14 day
[39] = Toxicity in BALB/c mouse implanted with mouse 4T1 cells assessed as kidney damage at 2.5 mg/kg, iv measured after 14 days by H and E staining based analysis; type: organism-based; details: in vivo, 336 h, time 14 day
4T1 [40] = test: Antitumor activity against mouse 4T1 cells implanted in female BALB/c mouse assessed as increase in CD4+ T cells at 2.5 mg/kg, iv preincubated with compound for 3 hrs followed by light irradiation with 660 nm 300 mW/cm2 for 3 min and measured after 14 days; type: functional, organism-based; details: time 20343.0 min
4T1 [41] = test: Antitumor activity against mouse 4T1 cells implanted in female BALB/c mouse assessed as increase in CD8+ T cells at 2.5 mg/kg, iv preincubated with compound for 3 hrs followed by light irradiation with 660 nm 300 mW/cm2 for 3 min and measured after 14 days; type: functional, organism-based; details: time 20343.0 min
4T1 [42] = test: Antitumor activity against mouse 4T1 cells implanted in female BALB/c mouse assessed as increase in T cell infiltration at 2.5 mg/kg, iv preincubated with compound for 3 hrs followed by light irradiation with 660 nm 300 mW/cm2 for 3 min and measured after 14 days; type: functional, organism-based; details: time 20343.0 min

For CCN(CC)c1ccc2nc3c(cc(NCc4ccc(NC(=O)C[C@H]5N=C(c6ccc(Cl)cc6)c6c(sc(C)c6C)-n6c(C)nnc65)cc4)c4ccccc43)[s+]c2c1.[Cl-], the Activity [1] was “Active”, the Activity [2] was “Active” and the Activity [3] was “Active”. For the same compound, the Drug uptake [4] was “Active”, the Activity (MDA-MB-231 [5]) was “Active” and the Activity (MDA-MB-231 [6]) was “inactive”. The Activity (MDA-MB-231 [7]) was “Active”, the Activity (MDA-MB-231 [8]) was “Active” and the IC50 [9] was 110 nM. For the same compound, the Activity (MDA-MB-231 [10]) was “Active”, the IC50 [11] was 45 nM and the Activity (MDA-MB-231 [12]) was “Active”. For the same compound, the Activity (MDA-MB-231 [13]) was “Active”, the Activity (MDA-MB-231 [14]) was “Active” and the Activity (MDA-MB-231 [15]) was “Active”. For the same compound, the Activity (MDA-MB-231 [16]) was “inactive”, the Activity (MDA-MB-231 [17]) was “inactive” and the Activity (MDA-MB-231 [18]) was “Active”. For the same compound, the Activity (MDA-MB-231 [19]) was “Active”, the Activity (MDA-MB-231 [20]) was “Active” and the Activity (MDA-MB-231 [21]) was “Active”. The Activity (MDA-MB-231 [22]) was “Active”, the Activity (MDA-MB-231 [23]) was “Active” and the Activity (MDA-MB-231 [24]) was “Active”. For the same compound, the Activity (MDA-MB-231 [25]) was “Active”, the Activity (MDA-MB-231 [26]) was “Active” and the Activity (MDA-MB-231 [27]) was “Active”. The Activity (MDA-MB-231 [28]) was “Dose-dependent-effect”, the Activity (MDA-MB-231 [29]) was “Active” and the inhibition [30] was “Active”. For the same compound, the Drug uptake [31] was “Active”, the Drug uptake [32] was “Active” and the Activity (4T1 [33]) was “Active”. For the same compound, the Activity (4T1 [34]) was “Active”, the Activity [35] was “Non-toxic” and the Activity [36] was “Non-toxic”. The Activity [37] was “Non-toxic”, the Activity [38] was “Non-toxic” and the Activity [39] was “Non-toxic”. The Activity (4T1 [40]) was “Active”, the Activity (4T1 [41]) was “Active” and the Activity (4T1 [42]) was “Active”.
